Results published in PMC5458211, “Mitochondrial VDAC1-based peptides: Attacking oncogenic properties in glioblastoma” (Oncotarget, 2017).
Non-standard residues stand in square brackets, D forms with d. Residues, ends and D or L forms follow the SMILES beside them.

Assays:
SH-SY5Y cells = test: Cell death by PI staining and flow cytometry, SH-SY5Y; assay type: cell-based; details: human neuroblastoma, 6 h at 37°C, serum-free medium, Suppl Fig 1
Method: (§1) Cells (6×10^5 /ml) were incubated in 500 μl serum-free medium with the peptide of interest for 6 h at 37°C in the presence of 5% CO2. The cells were then trypsinized, centrifuged (1500xg, 5 min), washed with PBS and analyzed for cell death using propidium iodide (PI) staining and flow cytometer (Beckton-Dickinson, San Jose, CA) and BD CellQuest Pro software. Apoptotic cell death was also analyzed by PI and annexin V-FITC staining, and by acridine orange and ethidium bromide staining and light microscopy (Olympus LX2-KSP). […]
was subsequently visualized by incubating with DAB. […]
Supplementary Figure 1: VDAC1-based peptides induce dramatic cell death of several brain tumor-derived cell […]
Ter-Antp (●) peptide in serum-free appropriate growth medium for 6 h at 37°C. Cells were harvested, washed twice with PBS and cell death was analyzed by propidium iodide (PI) staining and ﬂow cytometry. D. Summary of IC50 values (μM) for the peptides with the indicated […]
(also on this page, place not known: www.impactjournals.com/oncotarget/ Oncotarget, Materials 2017 V , Supplementary) […]

cancer cells = details: ref [23]; cited from earlier work
From the text: D-ΔN-Ter-Antp is composed of Antp (Penetrating), a 16 residue-long sequence from the Drosophila antennapedia-homeodomain, fused to a VDAC1-N-terminal sequence, both containing amino ...

LN-18 cells = test: Cell death by PI staining and flow cytometry, LN-18; assay type: cell-based, human; details: 6 h at 37°C, serum-free medium, means ± SD (n=3), Fig 1H, read-out: IC50 for inducing cell death
From the text: Figure 1 VDAC1-based peptides induce dramatic cell death of several brain tumor-derived cell lines but to lesser extent in primary brain cells A. IHC staining of VDAC1 of human normal brain (n=13) or glioblastoma (n=41) in tissue array slides (Biomax), as described in Materials and methods available online in Supplemental information. Percentages of sections stained at the intensity indicated are shown. […] The VDAC1-derived sequences Δ(1-14)N-terminus and LP4 are in green and pink, respectively. The cell-penetrating peptides Antp and Tf are in orange and blue, respectively. The loop shape of LP4 stabilized by a tryptophan zipper is in purple. The amino acids of Δ(1-14)N-terminus, LP4 and Antp are in the D configuration. The sequences of D-LP4 and Retro-D-LP4 are presented below. C. […] Cells were harvested, washed twice with PBS and cell death was analyzed by propidium iodide (PI) staining and flow cytometry. […] Cells were harvested, washed twice with PBS and cell death was analyzed by PI staining and flow cytometry. […]
as §1, with “software.” for “software. Apoptotic cell death was also analyzed by PI and annexin V-FITC staining, and by acridine orange and ethidium bromide staining and light microscopy (Olympus LX2-KSP).”

U-87MG cells = test: Apoptosis by FITC-Annexin V/PI staining and flow cytometry, U-87MG; assay type: cell-based, human; details: 3 h at 37°C, Fig 6G-H
Method: Sections were also hematoxylin-stained and visualized by microscopy. B. Tissue lysates obtained from controls and several TF-D-LP4-TTs were immunoblotted for Nestin, Sox2, NGFR, CD133, and Klf4. C. Quantitative analysis of immunoblots is shown (n=2-4). D. Immunoblot analysis of, Klf4, Sox2, Nestin and Musashi expression in U-87MG and G7 cell lines, using specific antibodies. E. Quantitative analysis of immunoblots. […] G. G7 (·) and U-87MG cells (○) (2×10^5) were incubated for 3 h with the DMSO (0.15%) or with the indicated concentration of Retro-Tf-D-LP4 peptide in serum-free growth medium at 37°C and then subjected to FITC-Annexin V/PI staining and flow cytometry analysis. H. Representative FACS analysis of DMSO- (left) and 5 μM of Retro-Tf-D-LP4- (right) treated G7 or U-87MG cells.
Cells (6×10^5 /ml) were incubated in 500 μl serum-free medium with the peptide of interest for 6 h at 37°C in the presence of 5% CO2. The cells were then trypsinized, centrifuged (1500xg, 5 min), washed with PBS and analyzed for cell death using propidium iodide (PI) staining and flow cytometer (Beckton-Dickinson, San Jose, CA) and BD CellQuest Pro software. Apoptotic cell death was also analyzed by PI and annexin V-FITC staining, and by acridine orange and ethidium bromide staining and light microscopy (Olympus LX2-KSP).

[1] = test system: mice bearing U-87MG intracranial xenografts; test: Survival (Kaplan-Meier) in U-87MG intracranial xenograft; assay type: in vivo, human U-87MG in nude mice; details: 10 mg/kg i.v., treatment ended day 46 post-inoculation
Method: B. U-87MG cells (2×10^5) were incubated for 12 h with the indicated concentrations of DMSO, Retro-Tf-D-LP4 peptide (Pep), or Retro-Tf-D-LP4 encapsulated in PLGA nanoparticles (PLGA-Pep). Samples of Retro-Tf-D-LP4 encapsulated in PLGA nanoparticles were centrifuged (15000g, 5 min) to separate the supernatant (Sup), containing free peptide, and the pellet, containing encapsulated Retro-Tf-D-LP4 peptide. Cell death was analyzed by PI staining and FACS analysis. C. Graphical representation of the orthotopic animal experiment. D. MRI imaging of brains 29 days post-intravenal treatment start with DMSO (1.05%), Retro-Tf-D-LP4 (10 mg/kg) encapsulated in PLGA nanoparticles or Tf-D-Retro-LP4 peptide (10 mg/Kg), as described in Materials and Methods available online in Supplemental information. E. Calculated tumor volumes after 20 (dark grey bars) and 29 (light grey bars) days post-treatment start. Results = mean ± SE (n = 6) (* p<0.05, *** p<0.001). F. Kaplan-Meier survival curves showing statistically significant differences in survival curves between the PBS/DMSO and Retro-Tf-D-LP4 treated mice. […]
For the intracranial-orthotopic xenograft mouse model, U-87MG cells (8×10^4) were engrafted into a nude mouse brain using a stereotactic device. […] Tumor volume was analyzed using VivoQuant 2.10 software.

Compound | cell death, SH-SY5Y (SH-SY5Y cells) | cell death induction, selection among over 40 versions (cancer cells) | IC50 (LN-18 cells) [nM] | apoptosis of U-87MG cells (U-87MG cells) | prolongation of survival relative to untreated mice [1] | mice with prolonged survival ([1]; followed another 46 days, untreated all died by day 32) [%]
CC[C@H](C)[C@H](NC(=O)[C@H](C)NC(=O)[C@@H](N)Cc1c[nH]cn1)C(=O)N[C@@H](Cc1ccc(O)cc1)C(=O)N1CCC[C@H]1C(=O)N[C@@H](CCCNC(=N)N)C(=O)N[C@@H](Cc1c[nH]cn1)C(=O)N[C@@H](CO)C(=O)N[C@@H](Cc1c[nH]c2ccccc12)C(=O)N[C@H](C(=O)N[C@@H](Cc1c[nH]c2ccccc12)C(=O)N[C@@H](CCC(=O)O)C(=O)N[C@H](CCCCN)C(=O)N[C@H](CCCCN)C(=O)N[C@H](CC(C)C)C(=O)N[C@H](CCC(=O)O)C(=O)N[C@@H](C(=O)N[C@H](C)C(=O)N[C@@H](C(=O)N[C@H](CC(N)=O)C(=O)N[C@H](CC(C)C)C(=O)N[C@H](C)C(=O)N[C@H](Cc1c[nH]c2ccccc12)C(=O)N[C@@H](C(=O)N[C@H](C)C(=O)NCC(=O)N[C@H](CC(N)=O)C(=O)N[C@H](CO)C(=O)N[C@H](CC(N)=O)C(=O)N[C@@H](CCCCN)C(=O)N[C@@H](Cc1c[nH]c2ccccc12)C(=O)N[C@H](C(=O)N[C@@H](Cc1c[nH]c2ccccc12)C(=O)N[C@@H](CCCCN)C(=O)O)[C@@H](C)O)[C@H](C)O)C(C)C)[C@H](C)O)[C@@H](C)O [Tf-D-LP4] | effectively induce cell death |  |  |  |  | 
CC[C@@H](C)[C@@H](NC(=O)[C@@H](CCCCN)NC(=O)[C@H](NC(=O)[C@@H](CCC(N)=O)NC(=O)[C@@H](CCCNC(=N)N)NC(=O)[C@@H](CC(C)C)NC(=O)CNC(=O)[C@@H](Cc1ccccc1)NC(=O)CNC(=O)[C@@H](Cc1ccc(O)cc1)NC(=O)CNC(=O)[C@@H](CCCCN)NC(=O)[C@H](NC(=O)[C@@H](Cc1ccccc1)NC(=O)[C@H](NC(=O)[C@@H](CC(=O)O)NC(=O)[C@H](N)CCCNC(=N)N)C(C)C)[C@H](C)O)[C@H](C)CC)C(=O)N[C@H](Cc1c[nH]c2ccccc12)C(=O)N[C@H](Cc1ccccc1)C(=O)N[C@H](CCC(N)=O)C(=O)N[C@H](CC(N)=O)C(=O)N[C@H](CCCNC(=N)N)C(=O)N[C@H](CCCNC(=N)N)C(=O)N[C@H](CCSC)C(=O)N[C@H](CCCCN)C(=O)N[C@H](Cc1c[nH]c2ccccc12)C(=O)N[C@H](CCCCN)C(=O)N[C@H](CCCCN)C(=O)O [D-ΔN-Ter-Antp] (H-[dR][dD][dV][dF][dT][dK]G[dY]G[dF]G[dL][dR][dQ][dI][dK][dI][dW][dF][dQ][dN][dR][dR][dM][dK][dW][dK][dK]-OH; N-terminus and C-terminus assumed) | effectively induce cell death | most active in cell death induction | 3000 ± 600 |  |  | 
CC[C@H](C)[C@H](NC(=O)[C@H](Cc1ccc(O)cc1)NC(=O)[C@@H]1CCCN1C(=O)[C@H](CCCNC(=N)N)NC(=O)[C@H](Cc1c[nH]cn1)NC(=O)[C@H](CO)NC(=O)[C@H](Cc1c[nH]c2ccccc12)NC(=O)[C@@H](NC(=O)[C@H](Cc1c[nH]c2ccccc12)NC(=O)[C@H](CCC(=O)O)NC(=O)[C@@H](CCCCN)NC(=O)[C@@H](CCCCN)NC(=O)[C@@H](CC(C)C)NC(=O)[C@@H](CCC(=O)O)NC(=O)[C@H](NC(=O)[C@@H](C)NC(=O)[C@H](NC(=O)[C@@H](CC(N)=O)NC(=O)[C@@H](CC(C)C)NC(=O)[C@@H](C)NC(=O)[C@@H](Cc1c[nH]c2ccccc12)NC(=O)[C@H](NC(=O)[C@@H](C)NC(=O)CNC(=O)[C@@H](CC(N)=O)NC(=O)[C@@H](CO)NC(=O)[C@@H](CC(N)=O)NC(=O)[C@H](CCCCN)NC(=O)[C@H](Cc1c[nH]c2ccccc12)NC(=O)[C@@H](NC(=O)[C@H](Cc1c[nH]c2ccccc12)NC(=O)[C@@H](N)CCCCN)[C@@H](C)O)[C@H](C)O)C(C)C)[C@H](C)O)[C@@H](C)O)C(=O)N[C@@H](C)C(=O)N[C@@H](Cc1c[nH]cn1)C(=O)O [Retro-Tf-D-LP4] |  |  |  | induces apoptosis | over 60 days | 40
